Converted amounts (≈) assume the structure as drawn.
Assays:
[1] = test system: MRSA MW2 persisters (stationary phase); assay: Persister killing assay; type: cell-based, S. aureus
Description: Persister killing assay. […] Persister cells of MRSA MW2 were prepared by growing cultures overnight to stationary phase at 37° C. at 200 rpm and washing 3 times with PBS. 1 mL of ˜2×10^8 CFU/mL MRSA persisters was added to 1 mL of PBS containing 2-fold of the desired concentration of antibiotics in a 96-well assay block (Corning Costar 3960). The assay block was incubated at 37° C., with shaking at 200 rpm. At specific times, […] were removed, washed once with PBS, serially diluted and spot-plated on TSA plates. Colonies were counted to enumerate the number of live cells after overnight incubation at 37° C. These experiments were conducted in biological triplicate.

[2] = test system: E. faecium WB312; assay: MIC assay; type: cell-based, Enterococcus faecium; settings: Enterococcus faecium; E. faecium WB312; read-out: Minimum inhibitory concentration
From the text: (§1) Bacterial strains, growth conditions, and persister isolation. Methicillin-resistant S. aureus strains, MW2 BAA-1707, ATCC 33591, and JE2, methicillin-susceptible S. aureus strains, NCTC 8325, Newman, and ATCC 29213, vancomycin-resistant S. aureus strain, VRS1, Enterococcus faecium E007, vancomycin-resistant E. faecium strains, C68,^7 WB312, and WC196, Klebsiella pneumoniae WGLW2 (BEI Resources, Manassas, Va., USA), Acinetobacter baumannii ATCC 17978, Pseudomonas aeruginosa PA14, and Enterobacter aerogenes ATCC 13048 were used to test antimicrobial activity (Table 1). S. aureus strains were grown in tryptic soy broth (TSB) (BD, Franklin Lakes, N.J., USA), and E. faecium was grown in brain-heart infusion (BHI) broth (BD, Franklin Lakes, N.J., USA) at 37° C. K. pneumoniae, A. baumannii, P. aeruginosa, and E. aerogenes were grown in Luria Bertani (LB) broth (BD, Franklin Lakes, N.J., USA) at 37° C.
(§2) Minimal inhibitory concentration (MIC) assay. The MICS of antibiotics were determined by the standard micro-dilution method recommended by the Clinical and Laboratory Standards Institute. MIC assays were conducted in biological triplicate.

[3] = test system: E. faecium C68; assay: MIC assay; type: cell-based, Enterococcus faecium; settings: Enterococcus faecium; E. faecium C68; read-out: Minimum inhibitory concentration
From the text: as §1, §2

[4] = test system: E.faecium E007; assay: MIC assay; type: cell-based, Enterococcus faecium; settings: Enterococcus faecium; E.faecium E007; read-out: Minimum inhibitory concentration
From the text: as §1, §2

[5] = test system: E. faecium WC196; assay: MIC assay; type: cell-based, Enterococcus faecium; settings: Enterococcus faecium; E. faecium WC196; read-out: Minimum inhibitory concentration
From the text: as §1, §2

[6] = test system: MRSA-infected C. elegans glp-4(bn2);sek-1(km4); assay: C. elegans-MRSA liquid killing assay; type: in vivo
Description: C. elegans-MRSA liquid killing assay. The C. elegans-MRSA infection assay was conducted as described in a previous study. Briefly, a black, clear-bottom 384-well plate (Corning no. 3712) was filled with 20 μL M9 buffer including the desired concentrations of nTZDpa, 1% DMSO (negative control), or 10 μg/mL vancomycin (positive control). After adding 15 young adult C. elegans glp-4(bn2);sek-1(km4) animals to the wells using a COPAS large particle sorter (Union Biometrica, Mass., USA), 35 μL of MRSA MW2 suspension was added (OD600 0.08). The assay plate was sealed with a gas-permeable membrane (Breathe-Easy, Diversified Biotech, Dedham, Mass., USA), and then incubated in a humidified chamber at 25° C. for 5 days. After washing the plate 8-times with M9 buffer using a microplate washer (BioTek EL×405, BioTek, Vt., USA), worms were stained with 0.7 μM SYTOX Orange. To evaluate worm survivability, the worms were imaged using an Image Xpress Micro automated microscope (Molecular Devices), capturing both transmitted light and TRITC (535 nm excitation, 610 nm emission) fluorescent images with a 2× objective. Only dead worms stain with SYTOX Orange. The assay was conducted in biological triplicate.

[7] = test system: S. aureus JE2; assay: MIC assay; type: cell-based; settings: Staphylococcus aureus; S. aureus JE2; read-out: Minimum inhibitory concentration
From the text: as §1, §2

[8] = test system: HepG2; assay: Cytotoxicity (WST-1); type: cell-based; settings: 32 μg/ml
Description: (§3) Cytotoxicity. […] HepG2 and HKC-8 cells were grown in Dulbecco's modified Eagle F-12 media mixed 1:1 with Ham's F-12 (DMEM/F-12, Life Technologies, Carlsbad, Calif., USA) supplemented with 10% FBS and 4 mM L-glutamine at 37° C. in 5% CO2. For cytotoxicity assays, HepG2 or HKC-8 was cultured in 96-well plates in 100 μL/well of the proper media to reach 70-80% confluence. The cells were then treated with a range of concentrations of nTZDpa or its analogs for 72 h. 10 μL of WST-1 (Roche, Mannheim, Germany) was added per well for the last 4 h of the 72 h period. WST-1 reduction was measured at absorbance 450 nm. The percent […] relative to that of the no-treatment control was calculated. The assay was carried out in biological triplicate.

[9] = test system: HKC-8; assay: Cytotoxicity (WST-1); type: cell-based; settings: 32 μg/ml
Description: as §3

[10] = test system: Gram-negative bacteria; assay: MIC against Gram-negative bacteria; type: cell-based
From the text: as §1, §2

[11] = test system: MRSA MW2 biofilms; assay: Biofilm persister killing assay; type: cell-based, S. aureus; settings: 16 μg/ml nTZDpa combined with 10 μg/ml gentamicin, 24 h
Description: Biofilm persister killing assay. An overnight culture of cells was diluted 1:200 with TSB supplemented with 0.2% glucose and 3% NaCl. A 13 mm-diameter Millipore mixed cellulose ester membrane (EMD Millipore GSWP01300) was placed at the bottom of each well of a 12-well plate (Falcon 353043). 1 mL of the diluted culture was added to each well and incubated statically at 37° C. for 24 h. The membranes were washed 3-times with PBS and transferred to a fresh 12-well plate. 1 mL of PBS containing the desired concentration of antibiotics was added to each well, and then the plate was incubated statically at 37° C. for 24 h. The membranes were washed 3 times with PBS, placed in 2-mL microcentrifuge tubes containing 1 mL PBS, and sonicated in an ultrasonic bath (Fisher Scientific FS 30) for 10 min. The sonicated samples were serially diluted and spot-plated on TSA to enumerate the number of live cells. The experiment was conducted in biological triplicate.

Q: How did the persister killing ([1]; 8 μg/ml nTZDpa and 80 μg/ml gentamicin) turn out when O=C(O)c1c(Sc2ccccc2)c2cc(Cl)ccc2n1Cc1ccc(Cl)cc1 [nTZDpa] was run?
A: 3 logs

Q: What about the “time to eradicate 100% of persisters” value ([1]; 16 μg/ml nTZDpa and 10 μg/ml gentamicin) of the same compound?
A: ≤ 3 h

Q: And the “killing of MRSA persisters in combination” value ([1]; 16 μg/ml nTZDpa combined with 10× MIC of other aminoglycosides)?
A: synergistic killing of MRSA persisters

Q: And the “reduction of MRSA persisters” value ([1]; 32 μg/mL)?
A: ~2 log

Q: And the “time to complete eradication of persisters” value ([1]; 64 μg/mL, ~5×10^7 CFU/mL)?
A: ≤ 2 h

Q: What about the MIC [2] of the same compound?
A: 4 µg/mL (≈ 9.34 µM)

Q: What about the MIC [3] of the same compound?
A: 4 µg/mL (≈ 9.34 µM)

Q: And the MIC [4]?
A: 4 µg/mL (≈ 9.34 µM)

Q: And the MIC [5]?
A: 4 µg/mL (≈ 9.34 µM)

Q: What about the “C. elegans rescued from MRSA-mediated lethality” value ([6]; 2 μg/ml to 16 μg/ml) of the same compound?
A: ~90%

Q: And the EC50 ([6]; Caenorhabditis elegans, 120 h, read-out: EC50 (median effective concentration), C. elegans survival)?
A: ~0.6 µg/mL (≈ 1.4 µM)

Q: What about the “EC50 relative to EC50 of vancomycin” value ([6]; fold higher) of the same compound?
A: 2 fold

Q: And the MIC [7]?
A: 4 µg/mL (≈ 9.34 µM)

Q: And the “cell death of HepG2” value [8]?
A: ~30%

Q: What about the “cell death of HKC-8” value [9] of the same compound?
A: ~16%

Q: What about the “antimicrobial activity against Gram-negative bacteria” value [10] of the same compound?
A: not effective against Gram-negative bacteria

Q: And the “MRSA persisters formed in biofilms” value [11]?
A: completely eradicated MRSA persisters formed in biofilms
